Reference: patent publication US12668845B2, “Methods for predicting drug responsiveness in cancer patients” (Allarity Therapeutics Europe ApS, priority 2018, dated 2026)

Columns and labels:
Assay in all cases: Growth inhibition of cell lines treated with 2X-121
Format in all cases: cell-based
[1] = system: NCI-H929; details: Homo sapiens; cell line NCI-H929, origin Myeloma; read-out: Measured growth inhibition IC50
[2] = system: NCI-H211; details: Homo sapiens; cell line NCI-H211, origin SCLC; read-out: Measured growth inhibition IC50
[3] = system: K562; details: Homo sapiens; cell line K562, origin Erythroleukemia from CML Pt; read-out: Measured growth inhibition IC50
[4] = system: HEC-251; details: cell line HEC-251, origin Endometrial; read-out: Measured growth inhibition IC50
[5] = system: HCC1806; details: Homo sapiens; cell line HCC1806, origin Breast; read-out: Measured growth inhibition IC50
[6] = system: HEC-108; details: cell line HEC-108, origin Endometrial; read-out: Measured growth inhibition IC50
[7] = system: U937; details: Homo sapiens, U-937; cell line U937, origin Histiocytic lymphoma-monocytic; read-out: Measured growth inhibition IC50
[8] = system: SNU-182; details: Homo sapiens; cell line SNU-182, origin HCC; read-out: Measured growth inhibition IC50
[9] = system: NCI-H146; details: Homo sapiens; cell line NCI-H146, origin SCLC; read-out: Measured growth inhibition IC50

O=c1[nH]nc2c3c(cccc13)N=C(CN1Cc3ccccc3C1)N2 [2X-121, 8-(isoindolin-2-ylmethyl)-2,9-dihydro-3H-pyridazino[3,4,5-de]quinazolin-3-one]
IC50 [1]: 5.2 µM | IC50 [2]: 0.48 µM | IC50 [3]: 4.3 µM | IC50 [4]: 1.26 µM | IC50 [5]: 1.8 µM | IC50 [6]: 5.97 µM | IC50 [7]: 2.7 µM | IC50 [8]: 5.4 µM | IC50 [9]: 0.93 µM
